According to patent US20130315848A1, “COSMETIC COMPOSITION FOR SKIN WHITENING COMPRISING RESVERATROL” (DSM IP ASSETS B.V., priority 2010, published 2013):

Assay: Analysis of radioactivity in the formulations: trans/cis isomer content
Assay type: physicochemical
Conditions: 14C radioactivity in formulation extracts
Excerpt: The different degree of isomerization could be explained by the extent of light exposure during the preparation of the cream and/or during the extraction procedure in the course of the series of experiments.

Substance: [phenyl-^14C]-resveratrol [^14C-Resveratrol stock solution]
- Resveratrol cis isomer: 0%
- Resveratrol trans-isomer: 100%
